Results reported in article PMC11969438 (Inorganic Chemistry Frontiers, 2025).

Key:
[1] = system: immune cell populations in tumor and spleen; test: Immune activation and infiltration by flow cytometry; type: in vivo, CT-26-bearing BALB/c mice; settings: 24 h after second dose
Description: Tumor size was determined daily via manual caliper measurement. […] Animals were euthanized via cervical dislocation.
The generation and treatment of tumor-bearing mice are outlined in the section “In vivo syngraft experiments” above. Samples were kept on ice during the whole procedure. Tissues were prepared as described previously.[55] In brief, tumor and spleen tissues were collected and mechanically dissociated in DPBS buffer containing Ca^2+/Mg^2+ and FCS (5%). Tumor samples were digested using collagenase VIII (1 mg mL^−1) in a DPBS buffer (without Ca^2+/Mg^2+) supplemented with DNAse I (1 mg mL^−1) for 15 min at 37 °C under constant shaking. Samples were filtered using 70 μm cell strainers in a DPBS buffer (without Ca^2+/Mg^2+) containing FCS (5%), EDTA (5 mM) and DNase I (20 μg mL^−1). Subsequent washing steps were performed in DPBS buffer (without Ca^2+/Mg^2+) containing FCS (5%), EDTA (5 mM) and DNase I (20 μg mL^−1), unless indicated otherwise. Red blood cells were removed by short incubation with ACK buffer. For blocking, samples were incubated with the Ultra-LEAF purified anti-mouse CD16/CD32 antibody (clone: 93; #101330; RRID:AB_2783037; dilution: 1 : 1000) (Biolegend, San Diego, CA, USA) in the BD Horizon Brilliant Stain Buffer (#563794; BD Biosciences) for 10 min. Next, the samples were incubated with an antibody mixture in the BD Horizon Brilliant Stain Buffer for 30 min. Fluorescent dye-labeled antibodies targeting murine CD3 (17A2; #100203; RRID:AB_312661; 1 : 50), CD8a (53-6.7; #100738; RRID:AB_11204079; 1 : 160), CD19 (6D5; #115528; RRID:AB_493735; 1 : 400), CD49b (DX5; #108924; RRID:AB_2565271; 1 : 229), CD11b (M1/70; #101228; RRID:AB_893232; 1 : 80), and CD69 (H1.2F3; # 104512; RRID:AB_493564; 1 : 40) were purchased from BioLegend. The antibody targeting murine CD4 (RM4-5; # 85-0042-U100; 1 : 80) and the viability dye Ghost Dye Red 780 (#13-0865-T100; 1 : 1000) were purchased from Tonbobio (San Diego, CA, USA). The antibody targeting CD45 (30-F11; #363-0451-82; RRID:AB_2925264; 1 : 80) was purchased from Life Tech (Invitrogen). For intracellular staining of granzyme B (GzmB) (QA16A02; #372208; RRID:AB_2687032; 1 : 20) and FoxP3 (MF-14; #320014; RRID:AB_439750; 1 : 100) the True-Nuclear Transcription Factor Buffer Set (Biolegend; #424401) was used according to the manufacturer's recommendations. In brief, samples were incubated with Perm Fix Solution for 60 min at RT. Next, the samples were stained with antibodies targeting GzmB and FoxP3 (diluted in Perm buffer) for 30 min at RT. […] Next day, the samples were analyzed using a Cytek Aurora 5L (Cytek Biosciences, CA, USA) spectral flow cytometer. Data were analyzed using SpectroFlo (v3.2.1) (Cytek Biosciences) and FlowJo (v10.8.1) (FlowJo LLC, Ashland, OR, USA) software.

[2] = system: HCT116/OxR cells; test: MTT-based cell viability assay, 72 h; parameters: species or system human
Description: Cell models were seeded (2–2.5 × 10^3 cells per well) in 96-well plates. After 24 h of recovery, the compounds were applied at the concentrations indicated in triplicate. Cell viability was determined after 72 h of continuous drug incubation using an MTT-based cell viability assay (EZ4U, Biomedica, Vienna, Austria) according to the manufacturer's recommendations. Absorbance was measured at 450 nm (vs. 620 nm as reference) using a multimode microplate reader (Tecan Spark, Zurich, Switzerland). Half-maximal inhibitory concentrations (IC50 values) were derived via interpolation from dose–response curves, modeled with the four-parameter logistic (4PL) nonlinear regression model in GraphPad Prism (La Jolla, CA, USA) from at least three independent experiments.

[3] = system: NF-κB pathway (STING-dependent); test: NF-κB-inducible SEAP reporter in THP1-Dual reporter cell model; type: cell-based, human; settings: for NF-κB %EMAX of MSA-2: maximal response relative to MSA-2; for EC50: 24 h exposure, normalized to cell viability, oxaliplatin in combinations 5 μM
Description: (§1) The THP1-Dual™ reporter cell model for simultaneously monitoring the activity of the IRF and NF-κB pathway contains an IRF-inducible luciferase reporter under the control of an ISG54 minimal promoter in conjunction with five interferon (IFN)-stimulated response elements, and an induced SEAP driven by an IFN-β minimal promoter fused to five copies of the NF-κB consensus transcriptional response element and three copies of the c-Rel binding site. The luciferase and SEAP reporter are measurable in the cell culture supernatant using QUANTI-Luc™ 4 Lucia/Gaussia (InvivoGen) and QUANTI-Blue™ (InvivoGen) solution, respectively. Cells were seeded at 1 × 10^5 cells per well in 96-well plates in RPMI-1640 medium, supplemented with 10% FCS, L-glutamine and Pen-Strep. After 2 h of recovery, the compounds were applied at the concentrations indicated in triplicate. The cell culture supernatant (SN) was collected after 24 h of drug incubation and secreted luciferase and SEAP reporter levels were measured according to the manufacturer's recommendations. In brief, for the detection of luciferase, 20 μL of SN were transferred into 96-well white opaque plates, and 30 μL of QUANTI-Luc™ reagent were added per well using an injector module in a multimode microplate reader (Tecan Spark, Zurich, Switzerland). Luminescence was recorded at a reading time of 0.1 second. For the detection of SEAP, 10 μL of SN were transferred to 96-well plates and 90 μL of QUANTI-Blue™ were added per well. Absorbance was measured at 620 nm. Half-maximal effective concentrations (EC50 values) were derived via interpolation from dose–response curves, modeled with the four-parameter logistic (4PL) nonlinear regression model in GraphPad Prism. For comparison, the maximal response rate of the prodrug was depicted in the percent of the maximal response rate achieved by SR-717 or MSA-2 (%EMAX) at the respective concentrations tested. Activatability, tested in co-incubation experiments with AA (50 μM), was expressed as the area under the curve (AUC) ratio of +AA vs. −AA-treated cells. The STING-dependency of the reporter induction was tested by co-administration of the STING inhibitor H-151 (10 μM), added to the cell culture medium 2 h before applying the investigated compounds. In addition to monitoring secreted reporter levels, the cell viability of the reporter cells was determined after 24 h of drug treatment by an MTT-based cell viability assay.

[4] = system: IRF pathway (STING-dependent); test: IRF-inducible luciferase reporter in THP1-Dual reporter cell model; type: cell-based, human; settings: for IRF %EMAX of MSA-2: maximal response relative to MSA-2, highest tested dose 100 μM; for EC50: 24 h exposure, normalized to cell viability, oxaliplatin in combinations 5 μM
Description: as §1

| SMILES | CD45+ cells among viable splenic cells [1] | splenic CD8+ T cells in the CD45+ cell population [1] | IC50 ([2]; without AA) | activation of NF-κB signaling pathway ([3]; 24 h) | activation of IRF signaling pathway ([4]; 24 h) | resistance factor (IC50 ratio HCT116/OxR vs parental HCT116) [2] | NF-κB EC50 ratio fold MSA-2 ([3]; 24 h) | NF-κB %EMAX of MSA-2 ([3]; 24 h) | EC50 [3] | IRF EC50 ratio fold MSA-2 ([4]; 24 h) | IRF %EMAX of MSA-2 ([4]; 24 h) | EC50 [4] | impact of reducing conditions on IRF-induced reporter signal (AUC ratio +AA/−AA) ([4]; AA 50 μM) | FoxP3+ CD4+ T cell compartment in the spleen [1] |
| --- | --- | --- | --- | --- | --- | --- | --- | --- | --- | --- | --- | --- | --- | --- |
| O=C1[O][Pt]2([NH][C@@H]3CCCC[C@H]3[NH]2)[O]C1=O [oxaliplatin, reference compound] | significantly upregulated | strongest effect | 27.5 µM | did not induce observable activation | did not induce observable activation | – | – | – | – | – | – | – | – | – |
| COCCOCCOCCOCCC(=O)[O][Pt-2]12([O]C(=O)CCC(=O)c3cc4cc(OC)c(OC)cc4s3)([NH2+][C@@H]3CCCC[C@H]3[NH2+]1)[O]C(=O)C(=O)[O]2 [Ox-MSA-PEG-Es, (OC-6-44)-[(1R,2R)-1,2-cyclohexanediamino]-oxalato-[4-(5,6-dimethoxybenzo[b]thiophen-2-yl)-4-oxobutylcarboxylato]-[2,5,8,11-tetraoxatetradecanoato]platinum(IV)] | – | – | – | – | – | > 3.1 fold | > 5.7 fold | 15% | > 100 µM | 8.6 fold | 24% | 78.8 µM | significantly enhanced | – |
| COCCOCCOCCOCCNC(=O)[O][Pt-2]12([O]C(=O)CCC(=O)c3cc4cc(OC)c(OC)cc4s3)([NH2+][C@@H]3CCCC[C@H]3[NH2+]1)[O]C(=O)C(=O)[O]2 [Ox-MSA-PEG-Ca, (OC-6-34)-[(1R,2R)-1,2-cyclohexanediamino]-oxalato-[4-(5,6-dimethoxybenzo[b]thiophen-2-yl)-4-oxobutylcarboxylato]-[3,6,9,12-tetraoxatridecan-1-amino]platinum(IV)] | – | – | – | – | – | 2.7 fold | 3.1 fold | 24% | 55.4 µM | 6.3 fold | 68% | 57.8 µM | – | selectively elevated |
